{"source": "patent US20250049836A1", "about": "“PRODRUGS OF DEOXYNUCLEOSIDES FOR TREATMENT OF MITOCHONDRIAL DISEASES CAUSED BY UNBALANCED NUCLEOTIDE POOLS” (UCB Biosciences, Inc., priority 2021, published 2025)", "key": {"MPV17^−/− mice": {"tested_on": "MPV17^−/− mice", "test": "qPCR measurements of mtDNA copy number in the liver of MPV17−/− mice", "format": "in vivo, mouse", "settings": "treatment alone; summary statement", "protocol": "• 2A. 2 litters from MPV17^−/− mouse (KO×KO) breeding pairs were used in the study. The experimental groups were set up as follows: • 1. - - - KO untreated (n=1) • 2. - - - KO treated with 109.35 mg/kg MT102C+104.2 mg/kg MT102G (n=3) • 3. - - - KO treated with 163.87 mg/kg MT103C+150.56 mg/kg MT103G (n=3) • 4. - - - KO treated with 75 mg/kg dC and 75 mg/kg dG (purchased from Sigma) (n=3) • 5. - - - KO treated with 144.9 mg/kg MT101G (n=2)\nTreatment was started at day 7 and terminated at day 30. The treatment was performed by delivery into the oral cavity throughout the study. […] At day 30, animals were sacrificed and tissues collected. Liver, muscle, kidney, gut, heart and brain were flash frozen in liquid nitrogen. Blood was collected by heart puncture and plasma fractions stored at −80° C.\nResults of qPCR measurements of mtDNA copy number in the liver tissue of treated and untreated mice are shown FIG. 7. • 2B. In order to compare results, WT (n=5), KO untreated (n=4) and KO treated with 20% MT101 (n=4) and 20% MT104 (n=4) from previous experiments were also included in the analysis. • 2C. Three other litters from KO x KO breeding pairs were used in a further study of nucleoside prodrug supplementation: • 1.—Litter 2 (L2): Born on Feb. 9, 2020 • 2.—Litter 3 (L3): Born on May 9, 2020 • 3.—Litter 4 (L4): Born on Aug. 9, 2020 […]\nmtDNA copy number in liver was analyzed by RT-qPCR. […]"}, "[1]": {"tested_on": "fibroblasts from patients with DGUOK mutations", "settings": "cited from earlier work"}, "dGK mutant fish": {"tested_on": "dGK mutant fish", "settings": "nucleoside supplementation (Munro, et al. 2019); cited from earlier work"}}}
{"smiles": "Nc1nc2c(ncn2[C@H]2C[C@H](O)[C@@H](CO)O2)c(=O)[nH]1", "note": "[dG, 2′-deoxyguanosine]", "values": [{"measurement": "mtDNA copy numbers in dGK or MPV17 deficiency disorders", "setting": "MPV17^−/− mice", "value": "sufficient to increase mtDNA copy numbers"}, {"measurement": "mtDNA depletion after quiescence, previously demonstrated", "setting": "[1]; 50 μM in cell culture medium", "value": "sufficient to prevent this depletion"}, {"measurement": "mtDNA copy number", "setting": "[1]; 50 μm added into culture broth (Camara, et al. 2014)", "value": "sufficient to increase the mtDNA copy number"}, {"measurement": "mtDNA levels in dGK mutant fish", "setting": "dGK mutant fish", "value": "decreased mtDNA levels"}]}
